Assay results published in ChEMBL document CHEMBL4765244, “Synthesis, bioconversion, pharmacokinetic and pharmacodynamic evaluation of N-isopropyl-oxy-carbonyloxymethyl prodrugs of CZh-226, a potent and selective PAK4 inhibitor” (Eur J Med Chem, 2020).

Assays:
[1] = Chemical stability of the compound in pH 7.4 PBS buffer assessed as compound remaining measured after 2 hrs by HPLC analysis; type: physicochemical; details: read-out: Stabilty
[2] = Chemical stability of the compound in pH 1.2 simulated gastric fluid buffer assessed as compound remaining measured after 2 hrs by HPLC analysis; type: physicochemical
[3] = Chemical stability of the compound in pH 6.8 simulated intestinal fluid assessed as compound remaining measured after 2 hrs by HPLC analysis; type: physicochemical
[4] = Stability of the compound in human plasma assessed as compound remaining measured within 120 mins at 37 degC by HPLC analysis; type: ADME, cell-free; details: read-out: Stabilty
[5] = Prodrug conversion in human plasma assessed as release of active metabolite (R)-(6-chloro-4-(5-cyclopropyl-1H-pyrazol-3-ylamino)quinazolin-2-yl)(3-methylpiperazin-1-yl)methanone hydrochloride measured within 120 mins at 37 degC by HPLC analysis; type: ADME, cell-free; details: 2 h
[6] = Stability of the compound in rat liver S9 fraction assessed as compound remaining measured after 60 mins at 37 degC by LC-MS/MS analysis; type: ADME, subcellular; details: read-out: Stabilty
[7] = AUC in Wistar rat assessed as (R)-(6-chloro-4-(5-cyclopropyl-1H-pyrazol-3-ylamino)quinazolin-2-yl)(3-methylpiperazin-1-yl)methanone hydrochloride at 13.84 mg/kg, po measured upto 24 hrs by LC/MS/MS analysis; type: ADME, organism-based; design: route oral, dose 13.84 mg/kg, time <=24; details: in vivo
[8] = AUC (0 to infinity) in Wistar rat assessed as (R)-(6-chloro-4-(5-cyclopropyl-1H-pyrazol-3-ylamino)quinazolin-2-yl)(3-methylpiperazin-1-yl)methanone hydrochloride at 13.84 mg/kg, po measured upto 24 hrs by LC/MS/MS analysis; type: ADME, organism-based; design: route oral, dose 13.84 mg/kg, time <=24; details: in vivo
[9] = Half life in Wistar rat assessed as (R)-(6-chloro-4-(5-cyclopropyl-1H-pyrazol-3-ylamino)quinazolin-2-yl)(3-methylpiperazin-1-yl)methanone hydrochloride at 13.84 mg/kg, po measured upto 24 hrs by LC/MS/MS analysis; type: ADME, organism-based; details: in vivo
[10] = Tmax in Wistar rat assessed as (R)-(6-chloro-4-(5-cyclopropyl-1H-pyrazol-3-ylamino)quinazolin-2-yl)(3-methylpiperazin-1-yl)methanone hydrochloride at 13.84 mg/kg, po measured upto 24 hrs by LC/MS/MS analysis; type: ADME, organism-based; details: in vivo
[11] = Cmax in Wistar rat assessed as (R)-(6-chloro-4-(5-cyclopropyl-1H-pyrazol-3-ylamino)quinazolin-2-yl)(3-methylpiperazin-1-yl)methanone hydrochloride at 13.84 mg/kg, po measured upto 24 hrs by LC/MS/MS analysis; type: ADME, organism-based; design: route oral, dose 13.84 mg/kg, time <=24; details: in vivo
[12] = AUC in Wistar rat assessed as (R)-(6-chloro-4-(5-cyclopropyl-1H-pyrazol-3-ylamino)quinazolin-2-yl)(3-methylpiperazin-1-yl)methanone hydrochloride at 12.43 mg/kg, po measured upto 24 hrs by LC/MS/MS analysis; type: ADME, organism-based; design: route oral, dose 12.43 mg/kg, time <=24; details: in vivo
[13] = AUC (0 to infinity) in Wistar rat assessed as (R)-(6-chloro-4-(5-cyclopropyl-1H-pyrazol-3-ylamino)quinazolin-2-yl)(3-methylpiperazin-1-yl)methanone hydrochloride at 12.43 mg/kg, po measured upto 24 hrs by LC/MS/MS analysis; type: ADME, organism-based; design: route oral, dose 12.43 mg/kg, time <=24; details: in vivo
[14] = Half life in Wistar rat assessed as (R)-(6-chloro-4-(5-cyclopropyl-1H-pyrazol-3-ylamino)quinazolin-2-yl)(3-methylpiperazin-1-yl)methanone hydrochloride at 12.43 mg/kg, po measured upto 24 hrs by LC/MS/MS analysis; type: ADME, organism-based; details: in vivo
[15] = Tmax in Wistar rat assessed as (R)-(6-chloro-4-(5-cyclopropyl-1H-pyrazol-3-ylamino)quinazolin-2-yl)(3-methylpiperazin-1-yl)methanone hydrochloride at 12.43 mg/kg, po measured upto 24 hrs by LC/MS/MS analysis; type: ADME, organism-based; details: in vivo
[16] = Cmax in Wistar rat assessed as (R)-(6-chloro-4-(5-cyclopropyl-1H-pyrazol-3-ylamino)quinazolin-2-yl)(3-methylpiperazin-1-yl)methanone hydrochloride at 12.43 mg/kg, po measured upto 24 hrs by LC/MS/MS analysis; type: ADME, organism-based; design: route oral, dose 12.43 mg/kg, time <=24; details: in vivo
[17] = AUC (0 to t) in Wistar rat at 10 mg/kg, po measured upto 24 hrs by LC/MS/MS; type: ADME, organism-based; design: route oral, dose 10 mg/kg, time <=24; details: in vivo
[18] = AUC (0 to infinity) in Wistar rat at 10 mg/kg, po measured upto 24 hrs by LC/MS/MS analysis; type: ADME, organism-based; design: route oral, dose 10 mg/kg, time <=24; details: in vivo
[19] = Half life in Wistar rat at 10 mg/kg, po measured upto 24 hrs by LC/MS/MS analysis; type: ADME, organism-based; details: in vivo
[20] = Tmax in Wistar rat at 10 mg/kg, po measured upto 24 hrs by LC/MS/MS analysis; type: ADME, organism-based; details: in vivo
[21] = Cmax in Wistar rat at 10 mg/kg, po measured upto 24 hrs by LC/MS/MS analysis; type: ADME, organism-based; design: route oral, dose 10 mg/kg, time <=24; details: in vivo
[22] = Oral bioavailability in Wistar rat assessed as (R)-(6-chloro-4-(5-cyclopropyl-1H-pyrazol-3-ylamino)quinazolin-2-yl)(3-methylpiperazin-1-yl)methanone hydrochloride at 10 mg/kg measured upto 24 hrs by LC/MS/MS analysis; type: ADME, organism-based; details: in vivo
[23] = Initial plasma concentration in Wistar rat at 2 mg/kg, iv measured upto 24 hrs by LC/MS/MS analysis; type: ADME, organism-based; details: in vivo
[24] = Clearance in Wistar rat at 2 mg/kg, iv measured upto 24 hrs by LC/MS/MS analysis; type: ADME, organism-based; details: in vivo
[25] = Volume of distribution in Wistar rat at 2 mg/kg, iv measured upto 24 hrs by LC/MS/MS analysis; type: ADME, organism-based; details: in vivo
[26] = Half life in Wistar rat at 2 mg/kg, iv measured upto 24 hrs by LC/MS/MS analysis; type: ADME, organism-based; details: in vivo
[27] = AUC (0 to infinity) in Wistar rat at 2 mg/kg, iv measured upto 24 hrs by LC/MS/MS analysis; type: ADME, organism-based; design: route intravenous, dose 2 mg/kg, time <=24; details: in vivo
[28] = AUC in Wistar rat at 2 mg/kg, iv measured upto 24 hrs by LC/MS/MS analysis; type: ADME, organism-based; design: route intravenous, dose 2 mg/kg, time <=24; details: in vivo
[29] = AUC in Wistar rat assessed as (R)-(6-chloro-4-(5-cyclopropyl-1H-pyrazol-3-ylamino)quinazolin-2-yl)(3-methylpiperazin-1-yl)methanone hydrochloride at 14.18 mg/kg, po measured upto 24 hrs by LC/MS/MS analysis; type: ADME, organism-based; design: route oral, dose 14.18 mg/kg, time <=24; details: in vivo
[30] = AUC (0 to infinity) in Wistar rat assessed as (R)-(6-chloro-4-(5-cyclopropyl-1H-pyrazol-3-ylamino)quinazolin-2-yl)(3-methylpiperazin-1-yl)methanone hydrochloride at 14.18 mg/kg, po measured upto 24 hrs by LC/MS/MS analysis; type: ADME, organism-based; design: route oral, dose 14.18 mg/kg, time <=24; details: in vivo
[31] = Half life in Wistar rat assessed as (R)-(6-chloro-4-(5-cyclopropyl-1H-pyrazol-3-ylamino)quinazolin-2-yl)(3-methylpiperazin-1-yl)methanone hydrochloride at 14.18 mg/kg, po measured upto 24 hrs by LC/MS/MS analysis; type: ADME, organism-based; details: in vivo
[32] = Tmax in Wistar rat assessed as (R)-(6-chloro-4-(5-cyclopropyl-1H-pyrazol-3-ylamino)quinazolin-2-yl)(3-methylpiperazin-1-yl)methanone hydrochloride at 14.18 mg/kg, po measured upto 24 hrs by LC/MS/MS analysis; type: ADME, organism-based; details: in vivo
[33] = Cmax in Wistar rat assessed as (R)-(6-chloro-4-(5-cyclopropyl-1H-pyrazol-3-ylamino)quinazolin-2-yl)(3-methylpiperazin-1-yl)methanone hydrochloride at 14.18 mg/kg, po measured upto 24 hrs by LC/MS/MS analysis; type: ADME, organism-based; design: route oral, dose 14.18 mg/kg, time <=24; details: in vivo

Row | Structure (SMILES) | remaining at 2 h [1] [%] | Stability [2] [%] | Stability [3] [%] | remaining at 2 h [4] [%] | Drug metabolism [5] [%] | remaining at 1 h [6] [%] | further results
1 | CCCCCOC(=O)N1CCN(C(=O)c2nc(Nc3cc(C4CC4)[nH]n3)c3cc(Cl)ccc3n2)C[C@H]1C | 99.8 | 88.4 | 90.7 | 74.4 | 21.4 | 63.9 | 
2 | C[C@@H]1CN(C(=O)c2nc(Nc3cc(C4CC4)[nH]n3)c3cc(Cl)ccc3n2)CCN1C(=O)OC(C)(C)C | 99.1 | 37.1 | 90.2 | 73.7 | 20.7 | 71.3 | 
3 | COC(=O)N1CCN(C(=O)c2nc(Nc3cc(C4CC4)[nH]n3)c3cc(Cl)ccc3n2)C[C@H]1C | 100 | 95.2 | 91.5 | 84.6 | 13.4 | 34.2 | 
4 | CC(C)OC(=O)N1CCN(C(=O)c2nc(Nc3cc(C4CC4)[nH]n3)c3cc(Cl)ccc3n2)C[C@H]1C | 99 | 70.2 | 94.4 | 78.5 | 18.7 | 78.6 | 
5 | CC(OC(=O)C(C)C)OC(=O)N1CCN(C(=O)c2nc(Nc3cc(C4CC4)[nH]n3)c3cc(Cl)ccc3n2)C[C@H]1C (stereo not given in full) | 96.6 | 62.5 | 88.6 | 17.4 | 78.8 | 11 | AUC [7]: 0.05 µg·h/mL; AUC [8]: 0.0596 µg·h/mL; t1/2 [9]: 10.35 h; Tmax [10]: 4.98 min; Cmax [11]: 0.0283 µg/mL
6 | C[C@@H]1CN(C(=O)c2nc(Nc3cc(C4CC4)[nH]n3)c3cc(Cl)ccc3n2)CCN1C(=O)OCOC(=O)C(C)(C)C | 97.7 | 83.9 | 93 | 0 | 94 | 47 | AUC [7]: 0.0288 µg·h/mL; AUC [8]: 0.0676 µg·h/mL; t1/2 [9]: 30.204 h; Tmax [10]: 4.98 min; Cmax [11]: 0.0028 µg/mL
7 | CCOC(=O)N1CCN(C(=O)c2nc(Nc3cc(C4CC4)[nH]n3)c3cc(Cl)ccc3n2)C[C@H]1C | 97.7 | 89.5 | 92.9 | 85.3 | 14.8 | 48.5 | 
8 | CC(C)COC(=O)N1CCN(C(=O)c2nc(Nc3cc(C4CC4)[nH]n3)c3cc(Cl)ccc3n2)C[C@H]1C | 99 | 70.2 | 88.8 | 73.7 | 25.7 | 61.1 | AUC [12]: 0.0635 µg·h/mL; AUC [13]: 0.1112 µg·h/mL; t1/2 [14]: 16.723 h; Tmax [15]: 1.5 h; Cmax [16]: 0.0074 µg/mL
9 | C[C@@H]1CN(C(=O)c2nc(Nc3cc(C4CC4)[nH]n3)c3cc(Cl)ccc3n2)CCN1.Cl |  |  |  | 97.4 |  | 53.9 | AUC(0-t) at 24 h [17]: 0.106 µg·h/mL; AUC(0-inf) [18]: 0.108 µg·h/mL; half-life [19]: 3.9 h; Tmax [20]: 4.98 min; Cmax [21]: 0.0149 µg/mL; F [22]: 1.92%; C0 [23]: 4.52 µg/mL; clearance [24]: 1.78 L/h/kg; Vd [25]: 12.4 L/kg; half-life [26]: 4.8 h; AUC(0-inf) [27]: 1.12 µg·h/mL; AUC at 24 h [28]: 1.11 µg·h/mL
10 | CC(OC(=O)N1CCN(C(=O)c2nc(Nc3cc(C4CC4)[nH]n3)c3cc(Cl)ccc3n2)C[C@H]1C)OC(=O)C(C)(C)C (stereo not given in full) | 90.5 | 92.2 | 88.7 | 49.4 | 46.3 | 66.3 | AUC [29]: 0.0351 µg·h/mL; AUC [30]: 0.0442 µg·h/mL; t1/2 [31]: 8.378 h; Tmax [32]: 8 h; Cmax [33]: 0.0039 µg/mL
11 | C[C@@H]1CN(C(=O)c2nc(Nc3cc(C4CC4)[nH]n3)c3cc(Cl)ccc3n2)CCN1C(=O)OCc1ccccc1 | 97.7 | 84.7 | 93.6 | 86.2 | 13.5 | 45.6 | 
12 | C[C@@H]1CN(C(=O)c2nc(Nc3cc(C4CC4)[nH]n3)c3cc(Cl)ccc3n2)CCN1C(=O)OCC(Cl)(Cl)Cl | 98.7 | 88.5 | 88.2 | 79 | 16.3 | 78.9 | 
